Results taken from patent US11155586B2, “Cystine knot scaffold platform” (Genentech, Inc., priority 2015, dated 2021).
Positions of bridges follow the written chain, without caps; N, C: chain ends. Residues, ends and D or L forms follow the SMILES beside them.

Key:
[1] = Oxidative stability (AAPH, LC-MS); type: physicochemical; details: 16 hours at 40° C.
Procedure: The oxidative stability of various CKP variants was assayed as follows: 5 μL of 11 mM AAPH (Calbiochem catalog no. 100110) in water was added to 50 uL of variant peptide sample (prepared as 1 mg/mL peptide in 20 mM histidine acetate pH 5.5) and the mix was incubated for 16 hours at 40° C. At the end of the incubation, the sample was quenched by addition of 27.5 uL of 40 mM methionine, followed by addition of 160 ul of 20 mM Histidine acetate, 100 mM sucrose at pH 5.5 to dilute the samples. The reactions were analyzed by LC-MS.

[2] = system: choroidal neovascularization in rat eyes; experiment: VEGF-A driven model of laser-induced choroidal neovascularization; type: in vivo; details: intravitreal, 14-day period, vs control eyes, FIG. 12
Procedure: Next, VEGF-A binding variants VEGF_CKP9.54.90, VEGF_CKP9.63.12, and VEGF_CKP9.63.44 were assessed for their in vivo efficacy in a VEGF-A driven model of choroidal neovascularization. Laser-burnt spots were created in rat eyes and the formation of new vessels was monitored after a 14-day period in the presence and absence of peptide that was administered intravitreally at different intervals.

[3] = target: T1, VEGF-B and Flt-1 (Homo sapiens, UniProt P49765); experiment: Competition ELISA, growth factor/receptor interaction; type: binding; details: FIG. 2A
T1 construct: purchased R &D Systems (Minneapolis, Minn.)
T1 sequence (P49765 22-136 limits assumed): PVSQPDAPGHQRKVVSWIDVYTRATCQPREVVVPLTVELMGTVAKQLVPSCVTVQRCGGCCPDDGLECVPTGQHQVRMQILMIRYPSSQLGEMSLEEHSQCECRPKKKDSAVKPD
Procedure: (§1) Binding specificity of each peptide was established by competition ELISA. […] After blocking with block buffer (PBS with 0.5% BSA and 0.05% TWEEN®20) for 2 hours at room temperature, the receptor-Fc fusions or biotinylated receptors were serially diluted using assay buffer (PBS with 0.5% BSA and 0.05% TWEEN®20) and incubated for 1 hour at room temperature. […] Competition ELISA was conducted in an identical fashion as described above except after blocking, a mixture of serially diluted peptide containing a constant concentration of receptor-Fc fusion or biotinylated receptor (concentration of receptor was set to EC60) was added and incubated for 1 hour. All recombinant human proteins and antibodies were purchased from R &D Systems (Minneapolis, Minn.).

[4] = target: T2, PDGF and PDGFR (Homo sapiens, UniProt P01127); experiment: as above; type: binding; details: FIG. 2B
T2 construct: purchased R &D Systems (Minneapolis, Minn.)
T2 sequence (P01127 82-190 limits assumed): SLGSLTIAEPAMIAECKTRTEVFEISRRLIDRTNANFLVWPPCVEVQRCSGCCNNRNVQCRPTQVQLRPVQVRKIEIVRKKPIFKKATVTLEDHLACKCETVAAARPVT
Procedure: as §1

[5] = target: T3, PIGF-2 and Flt-1 (Homo sapiens, UniProt P49763); experiment: as above; type: binding; details: FIG. 2A
T3 construct: purchased R &D Systems (Minneapolis, Minn.)
T3 sequence (P49763 19-170 isoform P49763-3 limits assumed): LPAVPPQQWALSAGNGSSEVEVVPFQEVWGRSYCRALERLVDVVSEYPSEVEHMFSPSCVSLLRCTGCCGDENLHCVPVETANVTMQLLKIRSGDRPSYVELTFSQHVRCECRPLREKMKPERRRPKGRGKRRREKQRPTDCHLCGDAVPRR
Procedure: as §1

[6] = target: T4, NGF and NGFR (Homo sapiens, UniProt P01138); experiment: as above; type: binding; details: FIG. 2B
T4 construct: purchased R &D Systems (Minneapolis, Minn.)
T4 sequence (P01138 122-241): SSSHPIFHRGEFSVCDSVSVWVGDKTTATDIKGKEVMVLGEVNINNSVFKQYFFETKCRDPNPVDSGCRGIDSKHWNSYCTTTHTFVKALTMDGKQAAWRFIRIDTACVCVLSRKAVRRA
Procedure: as §1

[7] = target: T5, VEGF-C and Flt-4 (Homo sapiens, UniProt P49767); experiment: as above; type: binding; details: FIG. 2A
T5 construct: purchased R &D Systems (Minneapolis, Minn.)
T5 sequence (P49767 112-227 limits assumed): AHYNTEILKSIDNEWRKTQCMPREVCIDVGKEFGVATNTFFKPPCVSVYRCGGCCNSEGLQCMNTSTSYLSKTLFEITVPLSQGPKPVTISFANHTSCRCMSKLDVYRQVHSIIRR
Procedure: as §1

[8] = target: T6, VEGF-D and Flt-4 (Homo sapiens, UniProt O43915); experiment: as above; type: binding; details: FIG. 2A
T6 construct: purchased R &D Systems (Minneapolis, Minn.)
T6 sequence (O43915 89-205 limits assumed): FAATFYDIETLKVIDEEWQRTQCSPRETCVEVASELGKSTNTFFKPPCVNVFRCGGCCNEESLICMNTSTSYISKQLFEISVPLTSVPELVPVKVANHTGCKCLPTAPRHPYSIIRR
Procedure: as §1

[9] = target: T7, VEGF-A and Flt-1 (Homo sapiens, UniProt P15692); experiment: as above; type: binding; details: FIGS. 2A and 2B
T7 construct: VEGF-A(8-109) and Flt-1; purchased R &D Systems (Minneapolis, Minn.)
T7 sequence (P15692 214-315): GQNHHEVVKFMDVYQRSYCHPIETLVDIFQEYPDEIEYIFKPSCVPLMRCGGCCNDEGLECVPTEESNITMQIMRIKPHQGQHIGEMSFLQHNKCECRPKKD
Procedure: as §1

[10] = target: T8, EGF and EGFR (Homo sapiens, UniProt P01133); experiment: as above; type: binding; details: FIG. 2B
T8 construct: purchased R &D Systems (Minneapolis, Minn.)
T8 sequence (P01133 971-1023 limits assumed): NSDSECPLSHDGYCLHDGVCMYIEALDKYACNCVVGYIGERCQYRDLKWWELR
Procedure: as §1

[11] = target: T9, IGF and IGFR (Homo sapiens, UniProt P05019); experiment: as above; type: binding; details: FIG. 2B
T9 construct: purchased R &D Systems (Minneapolis, Minn.)
T9 sequence (P05019 49-118 limits assumed): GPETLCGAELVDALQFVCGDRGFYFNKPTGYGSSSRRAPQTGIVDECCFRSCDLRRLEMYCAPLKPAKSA
Procedure: as §1

CC[C@H](C)[C@@H]1NC(=O)[C@H](CC(N)=O)NC(=O)[C@@H](NC(=O)CN)CSSC[C@@H](C(=O)N[C@H](C(=O)N[C@H]2CSSC[C@@H](C(=O)NCC(=O)O)NC(=O)[C@H](CO)NC(=O)[C@H](CCC(N)=O)NC(=O)[C@H](Cc3ccc(O)cc3)NC(=O)[C@H](Cc3ccc(O)cc3)NC(=O)[C@H](CCC(N)=O)NC2=O)C(C)C)NC(=O)CNC(=O)[C@H](C)NC(=O)[C@H](CC(C)C)NC(=O)[C@@H]2CSSC[C@H](NC(=O)CNC(=O)[C@H](Cc3c[nH]c4ccccc34)NC(=O)[C@H](Cc3ccccc3)NC(=O)[C@@H]3CCCN3C(=O)[C@H](CC(C)C)NC(=O)[C@H](CCSC)NC1=O)C(=O)NCC(=O)N[C@@H](CCCNC(=N)N)C(=O)N[C@@H](CC(=O)O)C(=O)N[C@@H](Cc1ccccc1)C(=O)N[C@@H](CCC(=O)O)C(=O)N2 [VEGF_CKP9.54.90] (H-GCNIMLPFWGCGRDFECLAGCVCQYYQSCG-OH; disulfide 2-21, 11-17, 23-29; N-terminus and C-terminus assumed)
oxidation at Met5 within loop 1 [1]: ~30% | inhibition of laser-induced choroidal neovascularization (neovascular area) [2]: effective inhibition | disruption of the interaction between VEGF-B and Flt-1 [3]: not disrupt | disruption of the interaction between PDGF and PDGFR [4]: not disrupt | disruption of the interaction between PIGF-2 and Flt-1 [5]: not disrupt | disruption of the interaction between NGF and NGFR [6]: not disrupt | disruption of the interaction between VEGF-C and Flt-4 [7]: not disrupt | disruption of the interaction between VEGF-D and Flt-4 [8]: not disrupt | disruption of the interaction between VEGF-A and Flt-1 [9]: disrupts | disruption of the interaction between EGF and EGFR [10]: not disrupt | disruption of the interaction between IGF and IGFR [11]: not disrupt
